Usually mass density stands for mass per unit of volume. A word on the viscosity: it is the internal friction of a fluid under shear.

A short description of the series: wn = mass fraction of the nth substance listed. As to conditions: 101.3 kPa, Liquid, w1 = 0.3.

SMILES strings stand for the structures. ± gives the expanded uncertainty stated by the source.

Consider `CC(C)(N)CO` [2-amino-2-methylpropan-1-ol] + O, for which the mass density stood at 999.85 ± 1.1 kg/m3 (293.15 K); 997.41 ± 1.1 kg/m3 (298.15 K); 994.62 ± 1.1 kg/m3 (303.15 K); 991.22 ± 1.1 kg/m3 (308.15 K); 988.72 ± 1.2 kg/m3 (313.15 K); 986.24 ± 1.2 kg/m3 (318.15 K). The mass density (323.15 K) came to 983.13 ± 1.3 kg/m3. For the same compound, the viscosity is 4.89 ± 0.43 mPa·s (293.15 K); 3.79 ± 0.34 mPa·s (298.15 K); 3.21 ± 0.29 mPa·s (303.15 K); 2.8 ± 0.25 mPa·s (308.15 K); 2.24 ± 0.21 mPa·s (313.15 K); 1.92 ± 0.18 mPa·s (318.15 K). Moreover, for the setting “323.15 K”, the viscosity was determined as 1.58 ± 0.15 mPa·s.

With `NCCO` [2-aminoethan-1-ol] + O, the mass density is, setting by setting: (293.15 K) 1015.3 ± 1.1 kg/m3; (298.15 K) 1012.1 ± 1.1 kg/m3; (303.15 K) 1009.2 ± 1.1 kg/m3; (308.15 K) 1004.9 ± 1.1 kg/m3; (313.15 K) 1003.2 ± 1.2 kg/m3; (318.15 K) 1001 ± 1.2 kg/m3. The mass density (323.15 K) was found to be 997.76 ± 1.3 kg/m3. Also, the viscosity (293.15 K) is 2.63 ± 0.24 mPa·s; the viscosity (298.15 K) amounted to 2.2 ± 0.2 mPa·s; the viscosity (303.15 K) is 2.1 ± 0.19 mPa·s; the viscosity (308.15 K) is recorded as 1.85 ± 0.17 mPa·s; the viscosity (313.15 K) is recorded as 1.6 ± 0.15 mPa·s; the viscosity (318.15 K) is listed as 1.5 ± 0.14 mPa·s. Further, the viscosity (323.15 K) is reported as 1.29 ± 0.12 mPa·s.

On to `CN(CCO)CCO` [N-methyldiethanolamine] + O, for which the mass density was determined as 1032.2 ± 1.1 kg/m3 (293.15 K); 1027.5 ± 1.1 kg/m3 (298.15 K); 1023.1 ± 1.1 kg/m3 (303.15 K); 1019.9 ± 1.2 kg/m3 (308.15 K); 1018.2 ± 1.2 kg/m3 (313.15 K); 1014.2 ± 1.3 kg/m3 (318.15 K). Where the note is “323.15 K”, the mass density is on record as 1011.2 ± 1.3 kg/m3. Further, the viscosity turned out to be 3.46 ± 0.31 mPa·s (293.15 K); 3.02 ± 0.27 mPa·s (298.15 K); 2.68 ± 0.24 mPa·s (303.15 K); 2.27 ± 0.21 mPa·s (308.15 K); 1.92 ± 0.18 mPa·s (313.15 K); 1.72 ± 0.16 mPa·s (318.15 K). Besides, under “323.15 K”, the viscosity came out at 1.49 ± 0.14 mPa·s.

Turning to `OCCNCCO` [diethanolamine] + O, the mass density is on record as 1042.7 ± 1.1 kg/m3 (293.15 K); 1037.4 ± 1.1 kg/m3 (298.15 K); 1033.2 ± 1.1 kg/m3 (303.15 K); 1029.1 ± 1.2 kg/m3 (308.15 K); 1026.4 ± 1.2 kg/m3 (313.15 K); 1022.7 ± 1.3 kg/m3 (318.15 K). In addition, the mass density (323.15 K) turned out to be 1019.3 ± 1.3 kg/m3. In addition, the viscosity was determined as 4.22 ± 0.37 mPa·s (293.15 K); 3.26 ± 0.3 mPa·s (298.15 K); 2.57 ± 0.23 mPa·s (303.15 K); 2.51 ± 0.23 mPa·s (308.15 K); 1.97 ± 0.18 mPa·s (313.15 K); 1.72 ± 0.16 mPa·s (318.15 K). In addition, the viscosity (323.15 K) was determined as 1.41 ± 0.13 mPa·s.

For the origin of these results see the NIST ThermoML archive (doi:10.1021/je020206a).
